Assay results reported in PubChem BioAssay (NCI).
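Values below derive from 48-hour exposures of cells grown in 96-well plates, with endpoints linearly interpolated between the two concentrations bracketing the appropriate inhibition level. The concentration for 50% growth inhibition is given as GI50. TGI denotes the concentration required for complete inhibition of growth.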

Assays:
Assay in all cases: NCI tumour cell line growth inhibition, 48 h
[1] = system: HCT-116 colon
[2] = system: MOLT-4 leukemia
[3] = system: MDA-MB-231 breast
[4] = system: HS 578T breast
[5] = system: NCI-H226 lung
[6] = system: HCT-15 colon
[7] = system: MCF7 breast
[8] = system: LOX IMVI melanoma
[9] = system: HT29 colon
[10] = system: NCI-H23 lung

Row | Structure (SMILES) | TGI [1] | TGI [2] | TGI [3] | TGI [4] | TGI [5] | TGI [6] | TGI [7] | TGI [8] | TGI [9] | TGI [10] | GI50 [1] | GI50 [2] | GI50 [3] | GI50 [4] | GI50 [5] | GI50 [6] | GI50 [7] | GI50 [8] | GI50 [9] | GI50 [10]
1 | COC1=CC(=O)c2c(cc(COP(N)(=O)N(CCCl)CCCl)n2C)C1=O (stereo not given) | 0.707 µM | 0.382 µM | 8.42 µM | > 100 µM | 1.32 µM | 3.54 µM | 9.55 µM | 1.73 µM | 4.33 µM | 3.41 µM |  |  |  |  |  |  |  |  |  | 
2 | Oc1cc(Cl)cc2cc(Cl)cnc12 | > 100 µM | 11.5 µM | 77.2 µM | > 100 µM | 92.2 µM | 27.3 µM | 54.6 µM | 13.1 µM | > 100 µM | 24.4 µM |  |  |  |  |  |  |  |  |  | 
3 | Cc1ccc(S(=O)(=O)NC(=O)NCCc2ccc(O)c(O)c2)cc1 | > 100 µM | > 100 µM | > 100 µM | > 100 µM | > 100 µM | > 100 µM | > 100 µM | > 100 µM | > 100 µM | > 100 µM |  |  |  |  |  |  |  |  |  | 
4 | C=CCNc1nc(O)c(/C=C2\C=Nc3ncccc32)s1 | > 100 µM | 7.95 µM | 6.63 µM | 9.66 µM | 21.6 µM | > 100 µM | > 100 µM | > 100 µM | > 100 µM | 6.28 µM | 1.52 µM | 2.64 µM | 2.44 µM | 2.03 µM | 1.99 µM | 2.62 µM | 2.2 µM | 2.73 µM | 3.05 µM | 1.93 µM
5 | COc1cc(OCc2nc3cc(C(F)(F)F)ccc3nc2-c2ccccc2)cc(OC)c1OC | > 100 µM | > 100 µM | > 100 µM | > 100 µM | > 100 µM | > 100 µM | > 100 µM | > 100 µM | > 100 µM | > 100 µM |  |  |  |  |  |  |  |  |  | 
6 | C=C1C(=O)[C@]23C[C@H]1C[C@@H](O)[C@H]2[C@]1(COC3=O)[C@@H](OC(C)=O)CC[C@@](C)(COC(C)=O)[C@H]1C=O | > 50 µM | 18.2 µM | > 50 µM | > 50 µM | 19 µM | > 50 µM | > 50 µM | > 50 µM | > 50 µM | > 50 µM |  |  |  |  |  |  |  |  |  | 
7 | Cc1ccc(S(=O)(=O)/N=C2/N(C)CCCS2(=O)=O)cc1 | > 100 µM | > 100 µM | 31.9 µM | > 100 µM | > 100 µM | > 100 µM | > 100 µM | > 100 µM | > 100 µM | > 100 µM |  |  |  |  |  |  |  |  |  | 
